Conditions: not given

Compound	melting point [°C]	ready biodegradability	boiling point [°C]	log10 vapour pressure (mmHg)	log10 Henry constant (atm·m³/mol)	log10 biodegradation half-life (days)	log10 Koc (L/kg)	log10 Koa
CC(C)(C)c1ccc2c(c1)C(=O)c1ccccc1C2=O	99	not readily biodegradable	–	–	–	–	–	–
Cc1ccccc1C#N	-13.5	–	205	-0.348	–	–	–	–
Cc1cccc2c1ccc1ccccc12	123	–	–	-4.82	-4.31	1.36	–	–
CC(C)(O)CCl	-20	–	128	–	–	–	–	–
CCCCOC(=O)CC(CC(=O)OCCCC)(OC(C)=O)C(=O)OCCCC	-80	readily biodegradable	–	–	–	–	–	–
FC(F)CBr	-75	–	57.3	–	–	–	–	–
COc1ccccc1NC(C)=O	87.5	–	304	–	–	–	–	–
N#CO	-86	–	–	2.91	–	–	–	–
CNC(=O)CC(C)=O	–	readily biodegradable	–	–	–	–	–	–
CCCCCCCCCCC(C)O (centres undefined)	19	–	252	–	–	–	–	–
N=C(N)NCCC[C@H](N)C(=O)O	–	readily biodegradable	–	–	–	–	–	–
CCCCC(C#N)(Cn1cncn1)c1ccc(Cl)cc1 (centres undefined)	–	–	–	–	–	–	2.7	–
O=[N+]([O-])c1ccccc1	5.7	not readily biodegradable	211	-0.611	-4.62	–	1.94	–
CCN(Cc1ccccc1)c1ccccc1	35	–	288	–	–	–	–	–
CCCOC(=O)C1CCCCC1	–	–	216	–	–	–	–	–
C=CCOC(=O)C(=C)C	–	readily biodegradable	–	0.761	–	–	–	–
CN1CCN(C)C1=O	8.2	–	221	–	–	–	–	–
FC(F)(F)C(Cl)Br (centres undefined)	-118	–	50.2	2.48	-1.69	–	–	–
CCCCCCCCCCCCCC1CCCCC1	18.5	–	346	-5.04	–	–	–	–
Oc1cc(O)cc(Cl)c1	118	–	–	–	–	–	–	–
c1ccc(Oc2nc(Oc3ccccc3)nc(Oc3ccccc3)n2)cc1	234	–	–	–	–	–	–	–
O=C(O)c1c(Cl)ccc(Cl)c1Cl	124	not readily biodegradable	–	-3.26	–	–	–	–
NC(=O)c1cc([N+](=O)[O-])cc([N+](=O)[O-])c1	184	–	–	–	–	–	2.31	–
Cc1cc(O)c(C)c(C)c1C	85.3	–	266	–	–	–	–	–
NS(=O)(=O)c1ccc(SCCCCO)c(F)c1	104	–	–	–	–	–	–	–
OCc1cccc(O)c1	73	–	–	–	–	–	–	–

Compound	melting point [°C]	ready biodegradability	boiling point [°C]	log10 vapour pressure (mmHg)	log10 Henry constant (atm·m³/mol)	log10 biodegradation half-life (days)	log10 Koc (L/kg)	log10 Koa
CCS(=O)(=O)c1ccc(F)cc1	41	–	–	–	–	–	–	–
CCOC(=O)C(=Cc1ccccc1)C(=O)OCC	32	–	–	–	–	–	–	–
C[C@H](O)CCCO	–	–	202	–	–	–	–	–
FC(Cl)C(Cl)(Cl)Cl (centres undefined)	-95.3	–	116	–	–	–	–	–
O=C(Cl)c1cccc(C(F)(F)F)c1	–	–	187	–	–	–	–	–
CCNC1=NC(=O)C(c2ccccc2)O1 (centres undefined)	148	–	–	–	–	–	–	–
O=C(OCC(=O)N1CCC[C@H]1C(=O)O)c1ccccc1	116	–	–	–	–	–	–	–
Cc1cncc(C)n1	47.5	–	156	–	–	–	–	–
Cc1ccc(SSc2ccc(C)cc2)cc1	47.5	–	–	–	–	–	–	–
Cc1cc(C2(c3ccc(O)c(C)c3)OC(=O)c3ccccc32)ccc1O	223	–	–	–	–	–	–	–
CS(=O)(=O)c1ccc2c(c1)N(CCCN1CCC(C(N)=O)CC1)c1ccccc1S2	170	–	–	–	–	–	–	–
O=NN([O-])c1ccccc1.[NH4+]	164	–	–	–	–	–	–	–
O=C(O)C(=O)Nc1ccccc1	150	–	–	–	–	–	–	–
Clc1cc(-c2cc(Cl)c(Cl)c(Cl)c2Cl)c(Cl)c(Cl)c1Cl	–	–	–	–	-5	–	6.41	–
Nc1ccccc1CO	83.5	–	273	–	–	–	–	–
CC(C)(C)Cc1ccccc1	–	–	186	–	–	–	–	–
CCCCCCCCCCCCCCCCCC(=O)CCCCCCCCCCCCCCCCC	89	–	–	–	–	–	–	–
CCC1(CC)C(=O)NC(=O)NC1=O	190	–	–	–	–	–	–	–
CCCCNC(=O)c1ccc2cc(O)c(O)cc2c1	194	–	–	–	–	–	–	–
CC(=O)OC(c1ccccc1)C(Cl)(Cl)Cl (centres undefined)	87.5	–	–	–	–	–	–	–
N#Cc1c2ccccc2cc2ccccc12	175	–	–	–	–	–	–	–
CC/C=C\CCO	–	readily biodegradable	–	–	–	–	–	–
CCOP(=O)(OCC)OP(=O)(OCC)OCC	–	–	–	-3.58	–	–	–	–
CN1C(=O)CC(c2ccccc2)C1=O (centres undefined)	72	–	–	–	–	–	–	–
CCCC#CCCCC	–	–	152	–	–	–	–	–
Clc1ccc2c(c1)Oc1cc(Cl)c(Cl)c(Cl)c1O2	172	–	–	-8.12	-5.12	–	–	–

Compound	melting point [°C]	ready biodegradability	boiling point [°C]	log10 vapour pressure (mmHg)	log10 Henry constant (atm·m³/mol)	log10 biodegradation half-life (days)	log10 Koc (L/kg)	log10 Koa
CCOc1ccc(NC(=O)C(C)O)cc1 (centres undefined)	118	–	–	–	–	–	–	–
CC(C)COc1ccc2ccccc2c1	31	not readily biodegradable	–	–	–	–	–	–
FCCCCCCCl	–	–	168	–	–	–	–	–
CC(C)C=CCO	–	–	159	–	–	–	–	–
CC(C)C(=O)C(=O)O	31.5	–	170	–	–	–	–	–
CC(C)(C)c1cc(O)ccc1O	128	–	273	–	–	–	–	–
CC(=O)OC(C)OC(C)=O	18.9	–	169	–	–	–	–	–
CC(C)(C)CCl	-20	–	84.3	–	–	–	–	–
CNC(=O)Oc1c(C(C)(C)C)cc(C)cc1C(C)(C)C	–	not readily biodegradable	–	–	–	–	–	–
CC(=O)O[C@]1(C(C)=O)CC[C@H]2[C@@H]3C[C@H](C)C4=CC(=O)CC[C@]4(C)[C@H]3CC[C@@]21C	206	–	–	–	–	–	–	–
COCCCl	–	–	92.5	–	–	–	–	–
Cc1csc(C)c1	–	–	141	–	–	–	–	–
CC(=O)NC(CC(=O)[O-])C(=O)[O-] (centres undefined)	138	–	–	–	–	–	–	–
Cc1ccc(S(=O)(=O)c2coc(S(N)(=O)=O)c2)cc1	185	–	–	–	–	–	–	–
O=C1CCc2cccc3c2N1CC3	112	–	–	-5.92	–	–	–	–
Cc1ccc(Sc2ccc(C)cc2)cc1	57.3	–	–	–	–	–	–	–
CCOC(=O)C(O)(c1ccccc1)c1ccccc1	34	–	–	–	–	–	–	–
S=C=S	-112	–	46	2.56	-1.84	–	2.34	2.28
CC(C)(COCc1cccc(Oc2ccccc2)c1)c1ccc(OC(F)(F)Br)cc1	–	–	–	-8.23	–	–	–	–
NCCO	10.5	readily biodegradable	171	-0.394	–	–	–	–
CCCCN(C(C)=O)c1ccccc1	24.5	–	281	–	–	–	–	–
Cc1c([N+](=O)[O-])cc(N)cc1[N+](=O)[O-]	171	–	–	–	–	–	–	–
CC(O)CCCCO (centres undefined)	–	–	237	–	–	–	–	–
Cc1c(N(C)C)c(=O)n(-c2ccccc2)n1C	134	–	–	–	–	–	–	–
N#CC(CCN1CCC(C(N)=O)(N2CCCCC2)CC1)(c1ccccc1)c1ccccc1	150	–	–	–	–	–	–	–
O=C(O)COCC(=O)O	148	–	–	–	–	–	–	–

Compound	melting point [°C]	ready biodegradability	boiling point [°C]	log10 vapour pressure (mmHg)	log10 Henry constant (atm·m³/mol)	log10 biodegradation half-life (days)	log10 Koc (L/kg)	log10 Koa
COC(=O)C(C)(C)C	–	–	101	–	-3.37	–	–	–
CCNc1nc(NC(C)(C)C)nc(OC)n1	124	–	–	-5.7	–	–	–	–
O=C[C@H](O)[C@H](O)[C@H](O)CO	98.5	–	–	–	–	–	–	–
CN(C)c1nc(=O)n(C2CCCCC2)c(=O)n1C	116	–	–	-6.65	–	–	1.73	–
CCOc1ccc(Cl)cc1Cl	32	–	237	–	–	–	–	–
CCCCCCc1ccc2c(c1)CCC2	-34	–	292	–	–	–	–	–
CCN(CC)CCSC(=O)N(c1ccccc1)c1ccccc1	48.5	–	–	–	–	–	–	–
CCOP(=O)(NC(C)C)Oc1ccc(SC)c(C)c1 (centres undefined)	49	–	–	-6	–	–	2.51	–
OCCN1CCNCC1	–	–	246	–	–	–	–	–
OCC(O)c1ccccc1 (centres undefined)	67.5	–	273	–	–	–	–	–
CCCCCCCCCCCCCCCCCCCCCC1CCCC1	42	–	420	–	–	–	–	–
ClC(Cl)(Cl)I	-7.8	–	142	–	–	–	–	–
C#C[C@]1(O)CC[C@H]2[C@@H]3CCc4cc(O)ccc4[C@H]3CC[C@@]21C	183	–	–	–	–	–	–	–
O=[N+]([O-])c1cccs1	46.5	–	224	–	–	–	–	–
ClC(Cl)(Cl)c1ccccc1	-5	readily biodegradable	221	-0.383	–	–	–	–
CCOP(=S)(OCC)Oc1ccc2c(C)c(Cl)c(=O)oc2c1	93	–	–	-7.01	–	–	–	–
CCOC(=O)CCC(=O)OC	–	–	208	–	–	–	–	–
Cc1ccccc1CO	38	–	224	–	–	–	–	–
CCCCOc1ccccc1OCCCC	–	not readily biodegradable	–	–	–	–	–	–
CC(=O)OCC(=O)c1ccccc1	49	–	270	–	–	–	–	–
CC(CCC(=O)O)c1ccccc1 (centres undefined)	13	–	–	–	–	–	–	–
Clc1ccc(-c2nc3c4ccccc4ccn3n2)cc1	239	–	–	–	–	–	–	–
O=C(F)C(F)(F)F	–	–	-59	–	-3.48	–	–	–

Same assay, conditions: fish

Compound	log10 biotransformation half-life (days)	log10 BCF
Cc1cccc2c1ccc1ccccc12	0.63	–
O=[N+]([O-])c1ccccc1	-0.93	0.67
O=C(O)c1c(Cl)ccc(Cl)c1Cl	–	0.54
Clc1cc(-c2cc(Cl)c(Cl)c(Cl)c2Cl)c(Cl)c(Cl)c1Cl	3	–
CC(C)COc1ccc2ccccc2c1	0.23	2.8
S=C=S	–	1.29
C=C(C)CCCCCCCCCC	0.64	–

Source: the OPERA property sets (Mansouri et al. 2018)
